Results published in PubChem BioAssay AID179 (DTP/NCI, 2004).
“And” between values parts separate entries of the source, which are not always exact repeats. Equal values may be shown once. The source made the active and inactive calls.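 Rule for the calls: active = compounds giving half or more protection of infected cells from virus-caused growth loss, again on retest; inactive = the rest.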

Tested on: CEM cells HIV-1 protection, formazan growth assay
Assay: NCI AIDS Antiviral Assay
Conditions: for IC50: measured here: growth of uninfected CEM cells
In short: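 Five concentrations of each compound were applied to infected and uninfected human CEM cells. Protection from HIV-1 was judged from growth measured with a soluble formazan assay.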

| SMILES | outcome | EC50 [µM] | IC50 |
| --- | --- | --- | --- |
| CCN(CC)c1ccc(C(=C2C=CC(=[N+](CC)CC)C=C2)c2ccc(S(=O)(=O)O)cc2S(=O)(=O)[O-])cc1 | inactive |  |  |
| COc1ccc(Nc2nc(NNC(=O)Cc3ccccc3)nc(NNC(=O)c3ccncc3)n2)cc1 |  | > 178 | 174 µM |
| Cn1c(=O)n2n(c1=O)C1(CCO)CCC2(CCO)CC1 |  | > 331 | > 331 µM |
| CC(C)OC(=S)Nc1ccc(Cl)c(/C=N/OC(C)(C)C)c1 |  | > 24 | 23.4 µM |
| [N-]=[N+]=NC1CC(n2ccc(=O)[nH]c2=O)OC1CO (stereo not drawn) |  | 2.88 | 20 µM |
| O=C1NC(=O)C2C3C(C(O)(c4ccccc4)c4ccccn4)=CC(/C3=C(\c3ccccc3)c3ccccn3)C12 (stereo not drawn) |  | > 200 | 53.7 µM |
| COC1(OC)CC2C(=O)N(Cc3ccccc3)C1C(S(=O)(=O)c1ccccc1)C2S(=O)(=O)c1ccccc1 (stereo not drawn) | inactive |  |  |
| COc1cc2nncc(SC)c2cc1OC |  | > 91.2 | 72.4 µM |
| COc1cc(CC2c3cc(OC)c(OC)cc3CC[N+]2(C)C)c(Oc2cc(CC3c4cc(OC)c(OC)cc4CC[N+]3(C)C)ccc2OC)cc1OC (stereo not drawn) | inactive |  |  |
| CC(C)(C)N=NC(C)(C)N=C=O |  | > 251 | > 251 µM |
| Clc1ccc(CSc2ccc3nncc(SCc4ccc(Cl)cc4Cl)c3c2)c(Cl)c1 |  | > 29.5 | > 29.5 µM |
| COc1ccc(C[C@H]2C(=O)OC[C@@H]2Cc2ccc(OC)c(OC)c2)cc1 |  | > 200 | 24 µM |
| Cc1cn(C2CC=C(CO)CC2)c(=O)[nH]c1=O (stereo not drawn) |  | > 1050 | > 1050 µM |
| NC(CSS(=O)(=O)O)=NCCCCOc1ccccc1 |  | > 200 | 91.2 µM |
| O=C(O)CNS(=O)(=O)c1ccc(NC(=O)c2cccc([N+](=O)[O-])c2)cc1 | inactive |  |  |
| CSc1ccc(Cc2cc(C(C)(C)C)cc(C(C)(C)C)c2O)cc1 | inactive |  |  |
| C=C(c1nc2ccc(Cl)cc2[nH]c1=O)C(O)c1ccc(C(O)C(=O)c2nc3ccc(Cl)cc3[nH]c2=O)cc1 (stereo not drawn) |  | > 162 | 12 µM |
| O=C(NO)Nc1ccc(Cl)cc1 | inactive |  | 251 µM |
| Cc1nnc(CC#N)n1NC(=O)CC#N |  | > 200 | > 200 µM |
| c1ccc(COCC2OC3c4ccccc4COC3C2OCc2ccccc2)cc1 (stereo not drawn) | inactive |  |  |
| COc1ccc(/C=C/C(=O)c2sc(Nc3ccc([N+](=O)[O-])cc3)nc2C)cc1 |  | > 47.9 | 39.8 µM |
| COc1ccccc1C1SC(c2ccccc2)(c2ccccc2)OC1=O (stereo not drawn) |  | > 3.98 | > 3.98 µM |

| SMILES | outcome | EC50 [µM] | IC50 |
| --- | --- | --- | --- |
| NC(=S)NN=C1Cc2ccccc2C1 |  | > 200 | 145 µM |
| NS(=O)(=O)c1ccc(NC(=O)/C=C\C(=O)O)cc1 |  | > 200 | > 200 µM |
| CC(C)c1nc2cc(C(F)(F)F)ccc2[nH]c1=O |  | > 200 | 120 µM |
| Cc1ncc2c(n1)NC(c1ccc([N+](=O)[O-])cc1)NC2 (stereo not drawn) |  | > 69.2 | > 69.2 µM |
| O=C(NNCC(F)(F)F)c1ccncc1 |  | > 200 | 30.2 µM |
| CCCCN(CCCC)NC(=S)Nc1ccccc1 |  | > 35.5 | > 35.5 µM |
| COc1ccc2[nH]c(=O)c(C(C)=O)c(O)c2c1 |  | > 200 | > 200 µM |
| Cn1c2c(cc(-c3ccccc3)c1=O)COc1ccccc1-2 |  | > 89.1 | 46.8 µM |
| COc1ccc(/C=C/C(=O)c2ccc3c(c2)OCO3)cc1OC |  | > 43.7 | 20.9 µM |
| Cc1ccc(N2CC(O)CSC2=Nc2ccccc2)cc1 (stereo not drawn) |  | > 112 | 46.8 µM |
| COC(=O)c1nc(NN)[nH]c(=O)c1CCCCCc1c(C(=O)OC)[nH]c(NN)cc1=O |  | > 6.31 | > 6.31 µM |
| c1ccc(-c2onc3c2CCCC3)cc1 | inactive |  |  |
| Nc1ncnc2c1ncc(=O)n2C1CC(O)C(CO)O1 (stereo not drawn) |  | > 200 | > 200 µM |
| O=C1C=CC=C/C1=C1\N=C(c2ccccc2OCC(=O)c2ccccc2)SS1 |  | > 50.1 | 4.27 µM |
| CC(C)c1cccc2sc(NC(=O)C(=O)C(C#N)c3cccc4ccccc34)nc12 (stereo not drawn) | inactive |  |  |
| O=C1[C@H]2ON(c3ccccc3)C(c3cccc([N+](=O)[O-])c3)[C@H]2C(=O)N1c1ccc(Cc2ccc(N3C(=O)[C@@H]4ON(c5ccccc5)C(c5cccc([N+](=O)[O-])c5)[C@@H]4C3=O)cc2)cc1 (stereo partly drawn) |  | > 6.17 | > 6.17 µM |
| CC(=O)OC1OC(C2c3cccc(O)c3C(=O)c3c(O)cc(CO)cc32)C(O)C(O)C1O (stereo not drawn) |  | > 200 | 4.07 µM and 4.17 µM |
| O=Nc1ccc(O)cc1O |  | > 200 | 148 µM |
| Cc1ccc(S(=O)(=O)NNC(=O)c2sc(-c3nc(C)c(C(=O)NNS(=O)(=O)c4ccc(C)cc4)s3)nc2C)cc1 |  | > 81.3 | > 81.3 µM |
| COC(=O)[C@@H]1C[C@@H](OS(=O)(=O)c2ccc(C)cc2)CN1C(=O)OCc1ccccc1 | inactive |  |  |
| CCOC(=O)/C(=C1/Nc2ccccc2S1)c1ncnc2nc[nH]c12 | inactive |  |  |
| CC1([N+](=O)[O-])COP(=O)(Nc2cccc(Cl)c2)OC1 (stereo not drawn) |  | > 813 | 398 µM |

| SMILES | outcome | EC50 [µM] | IC50 |
| --- | --- | --- | --- |
| CCN(CC)CCCNc1ncc(C)c2c1c1ccc3c(O)cccc3c1n2C |  | > 13.2 | 0.24 µM |
| C/C(O)=C(\C=N\C(=S)Nc1cccc(C(F)(F)F)c1)C(=O)Nc1ccccc1C |  | > 100 | 75.9 µM |
| CC(C)(CO)NC(=O)c1cccc(C(=O)NC(C)(C)CO)c1Br |  | > 200 | > 200 µM |
| CCO/C=N/C1=C(C#N)C(c2ccc(OC)c(OC)c2)c2c(-c3ccccc3)nn(-c3ccccc3)c2O1 (stereo not drawn) |  | > 100 | 14.1 µM |
| COC(=O)CCC1(C)C2CCC1(C)/C(=N/O)C2 (stereo not drawn) |  | > 200 | > 200 µM |
| Cc1cc(C)nc(NC(=S)Nc2cccc(Cl)c2)c1 |  | > 200 | 27.5 µM |
| O=c1c2ccccc2c2nccn2c2ccccc12 |  | 182 | > 200 µM |
| Cn1c(=O)[nH]c2c(c1=O)Cc1ccccc1S2(=O)=O |  | > 389 | 148 µM |
| CCN(CC)CCOc1ccc(/C(C#N)=C/c2ccc(OCCN3CCCCC3)cc2)cc1 |  | > 200 | 0.832 µM |
| CCN1CCCCC(=N\O)/C(=N/O)CCCC1 |  | > 741 | > 741 µM |
| COc1ccc(C2(OC)Oc3ccccc3C(=O)C2(O)O)cc1 (stereo not drawn) |  | > 200 | 12.6 µM |
| Cc1ccc(S(=O)(=O)Nc2cccc3c(=O)[nH]cnc23)cc1 |  | > 83.2 | 13.8 µM |
| COc1cccc2c1C(=O)OC2c1cccc2ccccc12 (stereo not drawn) | inactive |  |  |
| O=C(O)C(=C/C=C/c1ccccc1)C(=O)O | inactive |  |  |
| Cc1ccc(C2=Nc3ccccc3NC(=O)C2)cc1 |  | 20.4 | 75.9 µM |
| CSc1nc(N)n(C(=O)c2ccccc2Br)n1 |  | > 417 | > 417 µM |
| O=C(NC12CC3CC(CC(C3)C1)C2)C(=O)c1c[nH]c2ccc([N+](=O)[O-])cc12 |  | > 200 | 30.2 µM |
| CC(=O)OC1(CSc2ccccc2)CCCCC1 |  | > 200 | 49 µM |
| COc1ccccc1OCC(Cn1c(=O)nc(-c2ccccc2)c2cc(Cl)ccc21)OC(N)=O (stereo not drawn) |  | > 28.2 | > 28.2 µM |
| COC1=CC(=O)C=C(OC)C1=O |  | > 214 | 1.12 µM |
| Cc1ccc(N=C2SC(=NN(C)C)SC2=Nc2ccc(C)cc2)cc1 |  | > 200 | > 200 µM |
